The text below walks through data of patent publication US20160115192A1, “ANTIOXIDANT, ANTI-INFLAMMATORY AND ANTICANCER DERIVATIVES OF TRIPTOLIDE AND NANOSPHERES THEREOF” (CEDARS-SINAI MEDICAL CENTER, priority 2013, published 2016).

For data set [1] the following is noted: cited from earlier work.
The conditions of data set [2]: 30 minutes after administration; cited from earlier work.
Another data set deals with B7-H1 (PD-L1). Description: Inhibition of interferon-γ-dependent expression of B7-H1 (PD-L1) on cancer cells. In kind it is cell-based.
The next data set has as its system B7-H1. The note with it: known effect, background; cited from earlier work.

`CC[C@@]1(O)C(=O)OCc2c1cc1n(c2=O)Cc2cc3ccccc3nc2-1` [camptothecin, (S)-4-ethyl-4-hydroxy-1H-pyrano-[3′,4′:6,7]indolizino[1,2-b]quinoline-3, 14(4H,12H)-dione]: in data set [1], the solubility in water entry is reported as “essentially insoluble”. In addition, the “lactone form hydrolyzed to an open ring” value in data set [2] is 50%.

Regarding `CC(C)[C@]12O[C@H]1[C@@H]1O[C@]13[C@]1(O[C@H]1C[C@H]1C4=C(CC[C@@]13C)C(=O)OC4)[C@@H]2O` [triptolide, Triptolide], the “inhibitory effect on interferon-γ-dependent expression of B7-H1 (PD-L1)” value in the data set on B7-H1 (PD-L1) (MDA-MB-231 triple negative breast cancer cell, FIG. 9) is given as “inhibitory effect”; in the data set with B7-H1 (PD-L1) (MDA-MB-468 triple negative breast cancer cell, FIG. 10), “inhibitory effect”; in the data set on B7-H1 (PD-L1) (U-87 MG glioma cells, FIG. 8) it was “Inhibitory effect”; in the data set with B7-H1 (PD-L1) (U-87 stem-like cells, FIG. 5) it was “inhibitory effect”; in the data set with B7-H1 (PD-L1) (U-251 glioma cell, FIG. 7), “inhibitory effect”; with B7-H1 (PD-L1) (cancer stem cell (CSC-5), FIG. 6), “inhibitory effect”. Further, in the data set on B7-H1, the “expression of B7-H1 by cancer cells” value was “inhibit”.
